≈ marks a conversion by molar mass, not a printed value. Calls of active or inactive are those of the source. No cut-off for these calls is given here.
test system: not listed separately; experiment: Aqueous solubility of the compound in PBS buffer at pH 7.4 at 37 degC after 24 hrs by LC/MS analysis; assay type: physicochemical; details: pH 7.4, 24 h

With `O=C(Cc1ccccc1)Nc1nnc(CCCCc2nnc(NC(=O)Cc3ccc(O)cc3)s2)s1` the solubility was 17 µg/mL (≈ 33.4 µM).

biological target: T1, Glutaminase kidney isoform, mitochondrial (Homo sapiens, UniProt O94925); experiment: Inhibition of human kidney type glutaminase (124 to 669 residues) using L-[3H]-glutamine as substrate after 45 mins by topcount method; details: not given
T1 sequence (O94925 whole entry): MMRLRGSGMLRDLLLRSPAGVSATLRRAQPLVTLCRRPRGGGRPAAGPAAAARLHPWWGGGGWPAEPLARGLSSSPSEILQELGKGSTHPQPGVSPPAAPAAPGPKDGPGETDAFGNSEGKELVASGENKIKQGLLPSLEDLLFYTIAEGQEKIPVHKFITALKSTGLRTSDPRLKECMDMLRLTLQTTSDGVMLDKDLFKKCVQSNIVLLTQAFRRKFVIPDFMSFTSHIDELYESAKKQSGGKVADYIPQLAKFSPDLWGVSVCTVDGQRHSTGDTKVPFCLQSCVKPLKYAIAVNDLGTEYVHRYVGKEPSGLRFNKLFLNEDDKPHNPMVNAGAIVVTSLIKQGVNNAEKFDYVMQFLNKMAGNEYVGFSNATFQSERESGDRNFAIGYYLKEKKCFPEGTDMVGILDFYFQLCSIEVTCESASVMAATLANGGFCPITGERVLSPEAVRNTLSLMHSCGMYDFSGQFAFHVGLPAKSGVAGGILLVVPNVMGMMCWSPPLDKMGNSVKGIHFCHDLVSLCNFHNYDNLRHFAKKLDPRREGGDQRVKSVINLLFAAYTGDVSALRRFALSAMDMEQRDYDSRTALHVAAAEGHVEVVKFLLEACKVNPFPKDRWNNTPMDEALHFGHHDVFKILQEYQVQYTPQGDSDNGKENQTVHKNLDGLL

First: O=C(Cc1ccc(O)cc1)Nc1nnc(CCCCc2nnc(NC(=O)Cc3cccc(OC(F)(F)F)c3)s2)s1
Second: CC(=O)Oc1ccc(CC(=O)Nc2nnc(CCCCc3nnc(NC(=O)Cc4cccc(OC(F)(F)F)c4)s3)s2)cc1
The IC50 of the first is 3.9-fold lower: 510 nM for the first, 2000 nM for the second.

Compared with `O=C(Cc1ccccc1)Nc1nnc(CCCCc2nnc(NC(=O)Cc3ccc(OCc4ccccc4)cc3)s2)s1`, `O=C(Cc1ccccc1)Nc1nnc(CCCCc2nnc(NC(=O)Cc3ccc(Oc4ccccc4)cc3)s2)s1` is lower in IC50: > 25000 nM for the first, 380 nM for the second. The second is the more potent here.

Compared with `O=C(Cc1ccccc1)Nc1nnc(CCCCc2nnc(NC(=O)Cc3cccnc3)s2)s1`, `O=C(Cc1ccccc1)Nc1nnc(CCCCc2nnc(NC(=O)Cc3cccc(O)c3)s2)s1` is 1.7-fold higher in IC50: 70 nM for the first, 120 nM for the second. The first is the more potent here.

Compared with `COc1ccc(CC(=O)Nc2nnc(CCCCc3nnc(NC(=O)Cc4ccccc4)s3)s2)cc1`, `CC(=O)Oc1ccc(CC(=O)Nc2nnc(CCCCc3nnc(NC(=O)Cc4ccccc4)s3)s2)cc1` is 2.6-fold higher in IC50: 210 nM for the first, 540 nM for the second.

Compared with `Nc1ccc(CC(=O)Nc2nnc(CCCCc3nnc(NC(=O)Cc4ccccc4)s3)s2)cc1`, `O=C(Cc1ccccc1)Nc1nnc(CCCCc2nnc(NC(=O)Cc3ccc(O)cc3)s2)s1` is 33-fold lower in IC50: 2300 nM for the first, 70 nM for the second. The second is the more potent here.

First: CN(C)c1ccc(CC(=O)Nc2nnc(CCCCc3nnc(NC(=O)Cc4ccccc4)s3)s2)cc1
Second: O=C(Cc1ccccc1)Nc1nnc(CCCCc2nnc(NC(=O)Cc3ccc(C(=O)O)cc3)s2)s1
The IC50 of the first is 27-fold higher: 3000 nM for the first, 110 nM for the second. The second is the more potent here.

`O=C(Cc1ccc(O)cc1)Nc1nnc(CCCCc2nnc(NC(=O)Cc3ccc(O)cc3)s2)s1` and `O=C(Cc1ccc(O)cc1)Nc1nnc(CCCCc2nnc(NC(=O)Cc3cccnc3)s2)s1` are within 1.5-fold of each other in IC50: 120 nM for the first, 140 nM for the second.

Compared with `O=C(Cc1ccccc1)Nc1nnc(CCCCc2nnc(NC(=O)Cc3ccccn3)s2)s1`, `O=C(Cc1ccccc1)Nc1nnc(CCCCc2nnc(NC(=O)Cc3ccc(Br)cn3)s2)s1` is 2.4-fold higher in IC50: 70 nM for the first, 170 nM for the second. The first is the more potent here.

First: CC(=O)Oc1ccc(CC(=O)Nc2nnc(CCCCc3nnc(NC(=O)Cc4ccc(OC(C)=O)cc4)s3)s2)cc1
Second: CC(=O)Oc1ccc(CC(=O)Nc2nnc(CCCCc3nnc(NC(=O)Cc4cccnc4)s3)s2)cc1
The IC50 of the first is 10-fold higher: 1200 nM for the first, 120 nM for the second.

First: COC(=O)c1ccc(CC(=O)Nc2nnc(CCCCc3nnc(NC(=O)Cc4ccccc4)s3)s2)cc1
Second: CC(C)(C)OC(=O)Nc1ccc(CC(=O)Nc2nnc(CCCCc3nnc(NC(=O)Cc4ccccc4)s3)s2)cc1
The IC50 of the first is 29-fold higher: 13000 nM for the first, 450 nM for the second.

biological target: T2, Glutaminase kidney isoform, mitochondrial (Homo sapiens) (UniProt O94925); details: not given
T2 sequence (whole entry): T1 sequence (O94925 whole entry)

For `O=C(Cc1ccccc1)Nc1nnc(CCCCc2nnc(NC(=O)Cc3ccc(O)cc3)s2)s1`, the TDI was “inactive”.
